Columns and labels:
[1] = biological target: T1, human SNAP‐GLP‐1 receptor (Homo sapiens, UniProt P43220); assay: GLP‐1 receptor recycling by TR‐FRET in CHO‐K1‐SNAP‐GLP‐1 receptor cells; format: cell-based; conditions: H89 10 μM, exendin‐4 100 nM 30 min, n = 5
[2] = biological target: T1, human SNAP‐GLP‐1 receptor; assay: cAMP by HTRF in HEK293‐SNAP‐GLP‐1 receptor cells; format: cell-based; conditions: 30 min incubation, n = 5

T1 sequence (P43220 24-463): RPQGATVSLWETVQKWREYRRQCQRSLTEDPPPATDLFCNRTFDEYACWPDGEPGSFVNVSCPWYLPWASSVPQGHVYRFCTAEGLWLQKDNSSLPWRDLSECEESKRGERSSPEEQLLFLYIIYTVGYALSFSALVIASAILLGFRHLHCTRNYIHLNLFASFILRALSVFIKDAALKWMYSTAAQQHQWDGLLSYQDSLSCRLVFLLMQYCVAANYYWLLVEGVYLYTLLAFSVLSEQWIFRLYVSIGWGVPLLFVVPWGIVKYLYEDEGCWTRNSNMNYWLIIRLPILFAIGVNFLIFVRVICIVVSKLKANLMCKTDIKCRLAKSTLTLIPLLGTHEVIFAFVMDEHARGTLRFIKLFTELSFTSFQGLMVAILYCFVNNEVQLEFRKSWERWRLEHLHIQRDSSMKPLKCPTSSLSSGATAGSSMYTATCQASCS

Row | effect on GLP‐1 receptor recycling after exendin‐4 pretreatment [1] | Molecule | cAMP signalling potency of FITC conjugate [2]
1 | did not affect | O=S(=O)(NCCNC/C=C/c1ccc(Br)cc1)c1cccc2cnccc12 [H89] | 
2 |  | lixisenatide‐FITC: FITC‐conjugate of lixisenatide | reduced cAMP signalling potency
